Holding throughout (format): cell-based
Experiment [1] deals with fetal rat midbrain dopaminergic nerve cells. The experiment in a line: Neurite outgrowth in fetal rat midbrain dopaminergic nerve cells (anti-tyrosine hydroxylase immunostaining, Neurolucida). The conditions noted are these: for length of neurites elongated from the cell bodies (concentration dependence): 0.01, 0.1, 1.0 and 10 μg/mL, vs control (FIG. 6). Here is the method: Fetuses were removed from a Sprague-Dawley (SD) rat that was 15 days pregnant, and a ventral portion of midbrain was then cut out under a stereoscopic microscope. The obtained portion was chopped with a surgical knife, and was then treated at 37° C. in a 0.25% trypsin-containing PBS for 20 minutes, so that the cells were dispersed. Thereafter, the resulting cells were treated with PBS that contained 50 μg/mL deoxyribonuclease (DNase I) and 50 μg/mL trypsin inhibitor at 37° C. for 5 minutes, so as to obtain fetal rat midbrain dopaminergic nerve cells. The thus obtained fetal rat midbrain dopaminergic nerve cells were cultured at 37° C. in a 10% bovine serum-added Dulbecco's modified Eagle's medium (DMEM) culture solution in the presence of 5% CO2.
The above-described fetal rat midbrain dopaminergic nerve cells were cultured for 2 days, and the culture solution was then exchanged with a fresh one. The NAD analogue of the present invention was added to the cells in various concentrations of 0 (control), 0.01, 0.1, 1.0 and 10 μg/mL, and the obtained mixture was further cultured for 3 days. On the 5th day of the culture, the dopaminergic nerve cells were stained with an anti-tyrosine hydroxylase antibody (manufactured by Pel-Freez) and a Fluorescein (FITC)-labeled secondary antibody (manufactured by Jackson ImmunoResearch Laboratories, Inc.) according to an immunostaining method. Then, the length and number of neurites elongated from the cell bodies of the stained cells were then measured using Neurolucida (manufactured by Micro Bright Field). […] Moreover, the same experiment as described above was carried out using commercially available β-NAD.
The lengths of neurites elongated from the cells were measured, and a comparison was made on the measurement results. When 10 μg/mL of the NAD analogue of the present invention was added to the cells, the length of the obtained neurite became approximately 150% if the length of a neurite in the control was defined as 100%. […] It is noted that 45 control cells and 38 test cells were subjected to the measurement, and the results were shown as average values.
FIG. 8 is a graph showing a quantitative change in the effect of the NAD analogue of the present invention to allow neurites to elongate from fetal rat brain dopaminergic cells. […] Moreover, the same experiment as described above was carried out using commercially available β-NAD.

The test system of experiment [2] is HL-60 cells. The experiment is described as follows: Growth suppression of human myeloid leukemia cells (cell count). The conditions noted are these: tested 0, 2.0, 4.0, 8.0 μg/mL, 5 days, t-test p<0.05 (FIG. 17). On the procedure: The number of human myeloid leukemia cells (HL-60 cells) was adjusted to 1.0×10^4 cells/mL. The thus prepared HL-60 cells were cultured in an Eagle's MEM medium, to which calf serum had been added to a final concentration of 10% and to which the NAD analogue of the present invention had also been added in various concentrations of 0, 2.0, 4.0, and 8.0 μg/mL. After 5 days passed, the number of cells was counted.
(§1) Analysis was carried out by a t-test. It was determined that p<0.05 indicated a significant difference.

Another experiment concerns UF-1 cells. The experiment in a line: Growth suppression of retinoic acid-resistant leukemia cells (cell count). The conditions noted are these: tested 0, 2.0, 4.0, 8.0 μg/mL, 28 days, t-test p<0.05 (FIG. 19). On the procedure:
The number of retinoic acid-resistant leukemia cells (UF-1 cells) was adjusted to 1.0×10^4 cells/mL. The thus prepared UF-1 cells were cultured in an RPMI medium, to which calf serum had been added to a final concentration of 10% and to which the NAD analogue of the present invention had also been added in various concentrations of 0, 2.0, 4.0, and 8.0 μg/mL. After 28 days passed, the number of cells was counted.
Analysis was carried out by a t-test. It was determined that p<0.05 indicated a significant difference. […] A differentiation induction therapy using retinoic acid has conventionally been carried out for the treatment of myeloid leukemia cells. It has been known that the leukemia cells eventually become resistant to retinoic acid, and thus the effect of retinoic acid becomes deactivated. However, from the results of the test using the NAD analogue of the present invention, it was confirmed that the NAD analogue of the present invention has an action to suppress the growth of even leukemia cells, which have acquired resistance to retinoic acid. In general, cells are not cultured for such a long period of time. The above-mentioned results were epoch-making in the sense that they were found after the culture for 28 days.

For another experiment, the system named is NB-1 cells. The experiment in a line: Neurite outgrowth in human neuroblastoma-derived NB-1 cells (phase-contrast microscopy). Particulars: 10 μg/mL; for morphological alteration of the cells (neurite outgrowth): NB-1 cells 10^3 cells/mL, observed on the 10th day (FIG. 15). Here is the method: Using human neuroblastoma cell-derived cells as model cells for neurite outgrowth, the action of the NAD analogue of the present invention to induce the outgrowth of neurites was examined. Human-derived neuroblastoma cells (NB-1 cells) (obtained from the Health Science Research Resources Bank) were adjusted to a concentration of 10^3 cells/mL, and the cells were then cultured at 37° C. in a 10% fetal bovine serum-added Eagle's minimal essential medium (EME) culture solution in the presence of 5% CO2.
The above-described NB-1 cells were cultured for 3 hours, and the medium was then exchanged with a fresh one of the same type as described above. Then, 10 μg/mL of the NAD analogue of the present invention was added thereto, and the culture was further continued. Thereafter, the morphological alteration of the cells was observed under a phase-contrast microscope. During the culture, the culture solution was exchanged with a fresh one every 4 or 5 days. […] However, when compared with the case of adding the NAD analogue of the present invention to the cells, the length of such a neurite was apparently short. Moreover, the same experiment as described above was carried out using commercially available β-NAD.
The number of human neuroblastoma-derived cells (NB-cells), which were to be used as model cells for studying neurite outgrowth effect, was adjusted to 10^6 cells/mL. Thus prepared NB-1 cells were cultured in an Eagle's MEM medium, to which calf serum had been added to a final concentration of 10% and to which 10 μg/mL of the NAD analogue of the present invention had also been added. After 7 days passed, the morphological alteration of the cells was observed under a phase-contrast microscope at a magnification of 200 times.

The test system of experiment [3] is HL-60 cells. The experiment is described as follows: Apoptosis induction in human myeloid leukemia cells (nuclear staining, DNA electrophoresis). On the procedure: The number of human myeloid leukemia cells (HL-60 cells) was adjusted to 1.0×10^4 cells/mL. The thus prepared HL-60 cells were cultured in an RPMI medium, to which calf serum had been added to a final concentration of 10% and to which the NAD analogue of the present invention had also been added in a concentration of 10 μg/mL or 20 μg/mL. Four days later, the cells were subjected to nuclear staining, and they were then observed under a fluorescence microscope. Furthermore, DNA was extracted from the cells according to an ordinary method and was then electrophoresed.

For the next experiment, the system named is HT1080 cells. The experiment is described as follows: Growth suppression of human fibrosarcoma cells (cell count). The conditions noted are these: tested 0, 2.0, 4.0, 8.0 μg/mL, 7 days, t-test p<0.05 (FIG. 20). Here is the method:
The number of human fibrosarcoma cells (HT1080 cells) was adjusted to 1.0×10^4 cells/mL. Thus prepared HT1080 cells were cultured in an Eagle's MEM medium, to which calf serum had been added to a final concentration of 10% and to which the NAD analogue of the present invention had also been added in various concentrations of 0, 2.0, 4.0, and 8.0 μg/mL. After 7 days passed, the number of cells was counted.
as §1

The next experiment deals with Neuro-2a cells. The experiment in a line: Neurite outgrowth in mouse neuroblastoma Neuro-2a cells (phase-contrast microscopy). Particulars: 10 μg/mL, 48 hours culture, vs control without compound. Here is the method: Using mouse-derived neuroblastoma cells that are model cells used to examine neurite outgrowth effect, the inductive action of the NAD analogue of the present invention on the outgrowth of neurites was examined. Mouse-derived neuroblastoma cells (Neuro-2a cells) (obtained from the Health Science Research Resources Bank) were adjusted to a concentration of 10^6 cells/mL, and the cells were then cultured at 37° C. in a 10% fetal bovine serum-added Eagle's minimal essential (EME) medium culture solution in the presence of 5% CO2.
The above-described Neuro-2a cells were cultured for 3 hours, and the medium was then exchanged with a fresh one of the same type as described above. Then, 10 μg/mL of the NAD analogue of the present invention was added thereto, and the culture was further continued for 48 hours. Thereafter, the morphological alteration of the cell was observed under a phase-contrast microscope. […] However, when compared with the case of adding the NAD analogue of the present invention to the cells, the length of such a neurite was apparently short. Moreover, the same experiment as described above was carried out using commercially available β-NAD.

In another experiment the test system is HT29 cells. The experiment in a line: Growth suppression of human colon-adenocarcinoma cells (cell count). Particulars: tested 0, 2.0, 4.0, 8.0 μg/mL, 7 days, t-test p<0.05 (FIG. 21). On the procedure: The number of human colon-adenocarcinoma cells (HT29 cells) was adjusted to 1.0×10^4 cells/mL. Thus prepared HT29 cells were cultured in an Eagle's MEM medium, to which calf serum had been added to a final concentration of 10% and to which the NAD analogue of the present invention had also been added in various concentrations of 0, 2.0, 4.0, and 8.0 μg/mL. After 7 days passed, the number of cells was counted.
as §1

Consider “3-(aminocarbonyl)-1-[5-O-[[1-(6-amino-9H-purin-9-yl)-1-deoxy-β-D-ribofuranose-5-O-yl]phosphonyloxy(oxylato)phosphinyl]-β-L-ribofuranosyl]pyridinium [NAD analogue of the present invention]”, for which the “length of the neurite (control defined as 100%)” value in experiment [1] (10 μg/mL, average of 38 test cells vs 45 control cells (FIG. 7)) is “approximately 150%”. Moreover, the “length of neurites elongated from the cell bodies (concentration dependence)” value in experiment [1] (3 days) is reported as “the higher the concentration of the NAD analogue of the present invention in the fetal rat midbrain nerve cells, the longer a neurite”. Also, in experiment [1] (fetal rat brain dopaminergic cells (FIG. 8)), the “concentration whose addition allows neurites to elongate” value was 0.1 µg/mL. Besides, the “formation of varicosities on the projection” value in experiment [1] (fetal rat midbrain nerve cells, 0 to 10 μg/mL, 3 days) is given as “forms a large number of knobby, what is called “varicosities” on the projection”. For the same compound, the “concentration at which growth of the HL-60 cells was obviously suppressed” value in the experiment on HL-60 cells [2] was ≥ 2.0 µg/mL. For the same compound, in the experiment with UF-1 cells, the “concentration at which growth of the UF-1 cells was significantly suppressed” value is ≥ 8.0 µg/mL. Also, in the experiment on NB-1 cells, the “morphological alteration of the cells (neurite outgrowth)” value was “neurites (nerve axon-like projections) appeared from NB-1 cells and that these neurites elongated from the cells”. Further, the “morphological alteration of the cells (neurite-like structures)” value in the experiment with NB-1 cells (NB-1 cells 10^6 cells/mL, after 7 days (FIG. 16)) is “neurite-like structures elongated more significantly”. Besides, the “shape of the nucleus (nuclear staining, fluorescence microscope)” value in the experiment with HL-60 cells [3] (HL-60 cells cultured for 4 days with compound (FIG. 18B)) is “the breakage of the nucleus in the HL-60 cell was clearly observed”. Moreover, the “DNA fragmentation (electrophoresis of extracted DNA)” value with HL-60 cells [3] (HL-60 cells, 10 μg/mL or 20 μg/mL, 4 days (FIG. 18C lanes 3 and 4)) was “fragmentation of the DNA due to apoptosis was observed in the form of a “ladder.””. Besides, the “concentration at which growth of the cells was significantly suppressed” value is ≥ 4.0 µg/mL with HT1080 cells and ≥ 2 µg/mL in the experiment with HT29 cells. Further, the “morphological alteration of the cell (neurite outgrowth)” value in the experiment with Neuro-2a cells was “neurites (nerve axon-like projections) appeared from Neuro-2a cells and that these neurites elongated from the cells”.

In the case of `NC(=O)c1ccc[n+]([C@@H]2O[C@H](COP(=O)([O-])OP(=O)(O)OC[C@H]3O[C@@H](n4cnc5c(N)ncnc54)[C@H](O)[C@@H]3O)[C@@H](O)[C@H]2O)c1` [β-NAD, reference compound], the “length of neurites elongated from the cell bodies (concentration dependence)” value in experiment [1] (3 days) is given as “the outgrowth of neurites was not observed”. The “outgrowth of neurites (same experiment as FIG. 8)” value in experiment [1] (fetal rat brain dopaminergic cells) is on record as “the outgrowth of neurites was not observed”. Also, the “morphological alteration of the cells (neurite outgrowth)” value in the experiment with NB-1 cells is on record as “no change in neurites was found”. Besides, the “morphological alteration of the cell (neurite outgrowth)” value in the experiment with Neuro-2a cells is on record as “no change in neurites was found”.

For the origin of these results see patent publication US8481711B2, “Neurite outgrowth agent” (Hidenori Kamanishi, priority 2010, dated 2013).
